Target: T1, PPARδ (Homo sapiens, UniProt Q03181)
T1 construct: expressed in transfected cells; host or cells: human hepatocyte cell line L-02
T1 sequence (Q03181 1-441): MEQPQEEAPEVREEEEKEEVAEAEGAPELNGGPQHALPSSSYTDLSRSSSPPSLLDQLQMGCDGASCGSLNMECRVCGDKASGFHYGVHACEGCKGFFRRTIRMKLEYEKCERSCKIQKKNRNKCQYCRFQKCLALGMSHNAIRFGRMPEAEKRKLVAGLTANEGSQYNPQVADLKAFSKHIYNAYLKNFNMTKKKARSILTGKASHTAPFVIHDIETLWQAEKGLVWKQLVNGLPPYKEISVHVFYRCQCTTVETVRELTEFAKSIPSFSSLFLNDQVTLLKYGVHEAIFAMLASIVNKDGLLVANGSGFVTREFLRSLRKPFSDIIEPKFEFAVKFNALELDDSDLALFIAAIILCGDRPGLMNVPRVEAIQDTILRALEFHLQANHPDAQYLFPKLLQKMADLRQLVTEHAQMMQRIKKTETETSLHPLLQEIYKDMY
T1 sequence (P19793 1-462 partner): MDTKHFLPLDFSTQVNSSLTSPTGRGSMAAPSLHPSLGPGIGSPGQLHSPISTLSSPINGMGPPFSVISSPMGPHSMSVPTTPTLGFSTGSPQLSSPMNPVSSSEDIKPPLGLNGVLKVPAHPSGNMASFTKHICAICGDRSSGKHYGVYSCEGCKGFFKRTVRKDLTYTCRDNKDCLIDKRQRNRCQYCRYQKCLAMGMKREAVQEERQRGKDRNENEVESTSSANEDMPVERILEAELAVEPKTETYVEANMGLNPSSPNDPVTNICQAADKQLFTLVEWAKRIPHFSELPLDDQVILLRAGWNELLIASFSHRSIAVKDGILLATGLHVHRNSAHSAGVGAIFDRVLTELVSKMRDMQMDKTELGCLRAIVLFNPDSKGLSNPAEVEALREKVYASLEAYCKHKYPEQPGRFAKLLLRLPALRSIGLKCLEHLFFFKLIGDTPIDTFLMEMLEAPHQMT
Experiment: PPAR reporter gene model in L-02 cells, PPARδ
Assay type: cell-based
Details: luciferase reporter, 24 hours drug, read-out: Half-maximal activation concentration of reporter gene AC50, PPARδ
Description: The PPAR reporter gene model comprises three subtypes of expression plasmids, RXR expression plasmid, plasmid with luciferase reporter gene, and GFP expression plasmid as an external reference. The human hepatocyte cell line L-02 cells were seeded into 96-well plates at the density of 15,000 cells/well with about 50% plating rate, followed by culturing for 24 hours at 37° C. […] The fluorescence intensity (at wavelength 485-527 nm) of green fluorescent protein (GFP) in each well was firstly detected as an internal standard by a fluorescence detector, and then 30 μL of luciferase substrates (Promega, E151A) were added to each well. After slightly shaking to mix well, the […] were detected. The relative reporter gene activation intensity was obtained by the ratio of the fluorescence detection signal of the drugs to be tested to that of the solvent control, with both the signals normalized to the internal standard GFP signal. The half-maximal activation (AC50) of the drugs to be tested was calculated with the activity at various concentrations (shown in Table 1).

In the case of `O=C(c1ccc(F)cc1)c1ccccc1N[C@@H](Cc1ccc(OCCn2c3ccccc3c3ccccc32)cc1)C(=O)[O-].[Na+]` [sodium chiglitazar], the AC50 is reported as 708 nM.
